The target in the test is glucocorticoid receptor (GAL4 DBD-GR) (Homo sapiens (Human), UniProt P04150). In words: GR cell-based assays (GRE agonist / GRE antagonist), CHO-Gal4/GR luciferase reporter. An excerpt: Potential selective glucocorticoid receptor modulators of this intervention can be tested for modulation of the activity of the glucocorticoid receptor using cell-based assays. These assays involve a Chinese hamster ovary (CHO) cell line which contains fragments of the glucocorticoid receptor as well as fusion proteins. The glucocorticoid receptor fragments used are capable of binding the ligand (e.g. beclomethasone) to identify molecules that compete for binding with glucocorticoid receptor ligands. In more detail, the glucocorticoid receptor ligand binding domain is fused to the DNA binding domain (DBD) of the transcription factor GAL4 (GAL4 DBD-GR) and is stably integrated into a CHO cell line containing a GAL4-UAS-Luciferase reporter construct. […] After cell lysis the luminescence that is produced by luciferase after addition of the substrate is detected and EC50 or IC50 values can be calcuated. Engagement of molecules which induce gene expression via glucocortocoid receptor binding to the DNA leads to expression of the luciferase gene under the control of the fusion protein GAL4 DBD-GR and therefore to a dose-dependent increase of the luminescence signal. Binding of molecules which repress beclomethasone-induced gene expression of the luciferase gene under the control of the fusion protein GAL4 DBD-GR leads to a dose-dependent reduction of the luminescence signal.
Chain of glucocorticoid receptor (GAL4 DBD-GR) (P04150 524-758): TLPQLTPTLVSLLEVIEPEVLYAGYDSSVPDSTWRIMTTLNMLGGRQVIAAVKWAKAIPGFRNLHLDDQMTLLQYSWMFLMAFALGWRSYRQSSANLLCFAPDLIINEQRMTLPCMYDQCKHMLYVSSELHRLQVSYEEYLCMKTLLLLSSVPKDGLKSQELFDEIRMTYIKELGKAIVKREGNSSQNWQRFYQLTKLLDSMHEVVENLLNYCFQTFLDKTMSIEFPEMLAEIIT
The reporter cell line CHO-Gal4/GR consisted of a chinese hamster ovary (CHO) cell line (Leibniz Institute DSMZ—German Collection of Microorganisms and Cell Cultures GmbH: ACC-110) containing a firefly luciferase gene under the control of the GR ligand binding domain fused to the DNA binding domain (DBD) of GAL4 (GAL4 DBD-GR) stably integrated into CHO cells. This cell line was established by stable transfection of CHO cells with a GAL4-UAS-Luciferase reporter construct. In a subsequent step the ligand binding domain of the GR cloned into pIRES2-EGFP-GAL4 containing the DNA binding domain of GAL4 from pFA-AT2 was transfected. This fusion construct activated firefly luciferase expression under the control of a multimerized GAL4 upstream activation sequence (UAS). The signal of the emitted luminescence was recorded by the FLIPR^TETRA. This allowed for specific detection of ligand-induced activation of the GR and therefore for the identification of compounds with agonistic properties. The GAL4/UAS reporter was premixed with a vector that constitutively expressed Renilla luciferase, which served as an internal positive control for transfection efficiency.
The complete culture medium for the assay was: • DMEM F-12 (1:1) MIXTURE (LONZA cat. No: BE04-687F/U1) 500 mL • 5 mL of 100 mM Sodium Pyruvate (LONZA cat. No: BE12-115E) • 25 mL of 7.5% Sodium Bicarbonate (LONZA cat. No BE17-613E) • 6.5 mL of 1 M Hepes (LONZA cat. No: BE17-737E) • 5 mL of 100× Penicillin/Streptomycin (LONZA cat. No DE17-602E) • 50 mL of Fetal Bovine Serum (Euroclone cat. No ECS 0180L) • 0.25 mL of 10 mg/mL Puromycin (InvivoGen cat.: ant-pr-1) • 0.5 mL of 100 mg/mL Zeocin (InvivoGen cat.: ant-zn-1)
Cryo-preserved CHO-Gal4/GR cells were suspended in complete medium and 5000 cells/25 μl/well were seeded into the wells of 384-well polystyrene assay plates (Thermo Scientific, cat. #4332) and cultured at 37° C., 5% CO2 and 95% humidity. After 24 hours growth medium was carefully removed and replaced by 30 μl Opti-MEM (GIBCO, cat. #31985062) as assay buffer. To test the compounds an 8-point half-log compound dilution curve was generated in 100% DMSO starting from a 2 mM stock and compounds were then diluted 1:50 in Opti-MEM. 10 μl of compounds were then added to the wells containing 30 μl Opti-MEM resulting in a final assay concentration range from 10 μM to 0.003 μM in 0.5% DMSO. Compounds were tested at 8 concentrations in quadruplicate data points. […] Finally, cells were lysed with 20 μl of Triton/Luciferin solution and the signal of the emitted luminescence was recorded at the FLIPR^TETRA for 2 minutes. […]
Background: In a reporter assay the amount or activity of a reporter protein is the signal.

Where [1] appears, read: CHO-Gal4/GR reporter cells, agonist mode (EC50) or antagonist mode against beclometasone (IC50), 6 hour incubation.

Like-named read-outs stand apart in the source and are kept apart here.

As a reminder, the IC50 is the concentration needed to halve the response being measured. For the compound `C[C@]1(F)C(=O)N(c2ccc3c(cnn3-c3ccc(F)cc3)c2)[C@H](c2ccccc2)[C@H]1NC(=O)C1CC1` (racemic) [Example 128, N-[rac-(2R,3R,4R)-4-Fluoro-1-[1-(4-fluorophenyl)-1H-indazol-5-yl]-4-methyl-5-oxo-2-phenyl-pyrrolidin-3-yl]-cyclopropanecarboxylic acid amide], the IC50 (read-out: IC50 or EC50) was 100 to 1000 nM.
For `Cc1nocc1C(=O)N[C@H]1[C@H](c2ccccc2)N(c2ccc3c(cnn3-c3ccc(F)cc3)c2)C(=O)C1(C)C` [Example 40b, N-((2S,3R)-1-(1-(4-fluorophenyl)-1H-indazol-5-yl)-4,4-dimethyl-5-oxo-2-phenylpyrrolidin-3-yl)-3-methylisoxazole-4-carboxamide], under “read-out: IC50 or EC50”, the IC50 was 100 to 1000 nM.
Consider `O=C(N[C@H]1[C@H](CC2CC2)C(=O)N(c2ccc3c(cnn3-c3ccc(F)cc3)c2)[C@@H]1c1ccccc1)C1CC1` (racemic) [Example 121, N-[rac-(2R,3S,4S)-4-(Cyclopropyl-methyl)-1-[1-(4-fluorophenyl)-1H-indazol-5-yl]-5-oxo-2-phenyl-pyrrolidin-3-yl]-cyclopropanecarboxylic acid amide], for which the IC50 (read-out: IC50 or EC50) was below 100 nM.
The compound `CC1(C)C(=O)N(c2ccc3c(cnn3-c3ccc(F)cc3)c2)[C@H](c2ccccc2)[C@H]1NS(=O)(=O)C1CC1` [Example 35a, N-((2R,3S)-1-(1-(4-fluorophenyl)-1H-indazol-5-yl)-4,4-dimethyl-5-oxo-2-phenylpyrrolidin-3-yl)cyclopropanesulfonamide] had an IC50 under setting [1] below 100 nM.
For `Cc1cccc([C@@H]2[C@@H](NC(=O)c3scnc3C)[C@H](C)C(=O)N2c2ccc3c(cnn3-c3ccc(F)cc3)c2)c1` (racemic) [Example 67, N-[rac-(2R,3S,4S)-1-[1-(4-Fluorophenyl)-1H-indazol-5-yl]-4-methyl-2-m-tolyl-5-oxo-pyrrolidin-3-yl]-4-methyl-thiazole-5-carboxylic acid amide], the IC50 (read-out: IC50 or EC50) was below 100 nM.
Turning to `Cc1cccc([C@@H]2[C@@H](NC(=O)c3cccnc3)[C@@H](C)C(=O)N2c2ccc3c(cnn3-c3ccc(F)cc3)c2)c1` (racemic) [Example 73, N-[rac-(2R,3S,4R)-1-[1-(4-Fluorophenyl)-1H-indazol-5-yl]-4-methyl-2-m-tolyl-5-oxo-pyrrolidin-3-yl]-pyridine-3-carboxylic acid amide], for the setting “read-out: IC50 or EC50”, the IC50 is below 100 nM.
As for `Cc1nocc1C(=O)N[C@@H]1[C@@H](c2ccccc2)N(c2ccc3c(cnn3-c3ccc(F)cc3)c2)C(=O)C1(C)C` [Example 40a, N-((2R,3S)-1-(1-(4-fluorophenyl)-1H-indazol-5-yl)-4,4-dimethyl-5-oxo-2-phenylpyrrolidin-3-yl)-3-methylisoxazole-4-carboxamide], the IC50 under setting [1] was below 100 nM.
Consider `CC[C@@]1(C)C(=O)N(c2ccc3c(cnn3-c3ccc(F)cc3)c2)[C@H](c2ccccc2)[C@H]1NC(=O)C1CC1` (racemic) [Example 134, N-(rac-(2R,3S,4R)-4-ethyl-1-(1-(4-fluorophenyl)-1H-indazol-5-yl)-4-methyl-5-oxo-2-phenylpyrrolidin-3-yl)cyclopropanecarboxamide], for which, for the setting “read-out: IC50 or EC50”, the IC50 lay in the range of 100 to 1000 nM.
The compound `Cc1scnc1C(=O)N[C@@H]1[C@@H](c2ccccc2)N(c2ccc3c(cnn3-c3ccc(F)cc3)c2)C(=O)C1(C)C` [Example 39a, N-((2R,3S)-1-(1-(4-fluorophenyl)-1H-indazol-5-yl)-4,4-dimethyl-5-oxo-2-phenylpyrrolidin-3-yl)-5-methylthiazole-4-carboxamide] yielded an IC50 under setting [1] below 100 nM.
On to `CC[C@@H]1[C@@H](NC(=O)c2ncccn2)[C@H](Cc2ccccc2)C(=O)N1c1ccc2c(cnn2-c2ccc(F)cc2)c1` (racemic) [Example 90, N-[rac-(2R,3S,4S)-4-Benzyl-2-ethyl-1-[1-(4-fluorophenyl)-1H-indazol-5-yl]-5-oxo-pyrrolidin-3-yl]-pyrimidine-2-carboxylic acid amide], for which, for the setting “read-out: IC50 or EC50”, the IC50 fell in the range of 1000 to 15000 nM.
The same measure, in the same setting: in the case of `C[C@@]1(CC(F)F)C(=O)N(c2ccc3c(cnn3-c3ccc(F)cc3)c2)[C@H](c2ccccc2)[C@H]1NC(=O)C1CC1` (racemic) [Example 148, N-(rac-(2R,3S,4S)-4-(2,2-difluoroethyl)-1-(1-(4-fluorophenyl)-1H-indazol-5-yl)-4-methyl-5-oxo-2-phenylpyrrolidin-3-yl)cyclopropanecarboxamide] it was below 100 nM.
`O=C(N[C@@H]1[C@@H](c2ccccc2)N(c2ccc3c(cnn3-c3ccc(F)cc3)c2)C(=O)[C@@H]1CC(F)F)C1CC1` [Example 132, N-((2R,3S,4R)-4-(2,2-difluoroethyl)-1-(1-(4-fluorophenyl)-1H-indazol-5-yl)-5-oxo-2-phenylpyrrolidin-3-yl)cyclopropanecarboxamide] registered an IC50 under setting [1] below 100 nM.
With `CC1(C)C(=O)N(c2ccc3c(cnn3-c3ccc(F)cc3)c2)[C@@H](c2ccccc2)[C@@H]1NC(=O)c1ncccn1` [Example 43b, N-((2S,3R)-1-(1-(4-fluorophenyl)-1H-indazol-5-yl)-4,4-dimethyl-5-oxo-2-phenylpyrrolidin-3-yl)pyrimidine-2-carboxamide], the IC50 (read-out: IC50 or EC50) fell in the range of 1000 to 15000 nM.
The same measure, in the same setting: the value for `C[C@@H]1C(=O)N(c2ccc3c(cnn3-c3ccc(F)cc3)c2)[C@H](c2ccccc2)[C@H]1NC(=O)C1CC1` (racemic) [Example 46, N-[rac-(2R,3S,4S)-1-[1-(4-Fluorophenyl)-1H-indazol-5-yl]-4-methyl-5-oxo-2-phenyl-pyrrolidin-3-yl]-cyclopropanecarboxylic acid amide] was below 100 nM; that for `C[C@@H]1C(=O)N(c2ccc3c(cnn3-c3ccc(F)cc3)c2)[C@H](c2ccc(Cl)s2)[C@H]1NC(=O)C1CC1` (racemic) [Example 108, N-[rac-(2S,3S,4S)-2-(5-Chloro-thiophen-2-yl)-1-[1-(4-fluorophenyl)-1H-indazol-5-yl]-4-methyl-5-oxo-pyrrolidin-3-yl]-cyclopropanecarboxylic acid amide] was below 100 nM.
Consider `CC1(C)C(=O)N(c2ccc3c(cnn3-c3ccc(F)cc3)c2)[C@H](c2ccccc2)[C@H]1NC(=O)c1cccnc1` [Example 42a, N-((2R,3S)-1-(1-(4-fluorophenyl)-1H-indazol-5-yl)-4,4-dimethyl-5-oxo-2-phenylpyrrolidin-3-yl)nicotinamide], for which the IC50 under setting [1] is below 100 nM.
`C[C@@]1(F)C(=O)N(c2ccc3c(cnn3-c3ccc(F)cc3)c2)[C@H](c2ccccc2)[C@H]1NC(=O)C1CC1` (racemic) [Example 129, N-[rac-(2R,3R,4S)-4-Fluoro-1-[1-(4-fluorophenyl)-1H-indazol-5-yl]-4-methyl-5-oxo-2-phenyl-pyrrolidin-3-yl]-cyclopropanecarboxylic acid amide]: the IC50 (read-out: IC50 or EC50) is below 100 nM.
With `C[C@@H]1C(=O)N(c2ccc3c(cnn3-c3ccc(F)cc3)c2)[C@H](c2ccccc2)[C@H]1NC(=O)c1ncccn1` (racemic) [Example 66, N-[rac-(2R,3S,4S)-1-[1-(4-Fluorophenyl)-1H-indazol-5-yl]-4-methyl-5-oxo-2-phenyl-pyrrolidin-3-yl]-pyrimidine-2-carboxylic acid amide], under “read-out: IC50 or EC50”, the IC50 is below 100 nM.
Take `COc1ccc([C@@H]2[C@@H](NC(=O)c3cccnc3)[C@H](C)C(=O)N2c2ccc3c(cnn3-c3ccc(F)cc3)c2)cc1` (racemic) [Example 84, N-[rac-(2R,3S,4S)-1-[1-(4-Fluorophenyl)-1H-indazol-5-yl]-2-(4-methoxyphenyl)-4-methyl-5-oxo-pyrrolidin-3-yl]-pyridine-3-carboxylic acid amide]: the IC50 (read-out: IC50 or EC50) lay in the range of 100 to 1000 nM.

The values above are taken from US12358907B2, “Substituted pyrrolidine amides III” (GRÜNENTHAL GMBH, priority 2019, dated 2025).
